According to US20240383910A1, “SMALL MOLECULE BTK DEGRADERS AND METHODS OF USE THEREOF” (Baylor College of Medicine, priority 2023, published 2024):
Values joined by “and” are separate entries in the source; they are usually repeats but may differ in a detail not shown here. Identical values can stand only once. Like-named read-outs stand apart in the source and are kept apart here.

Experiments:
His-BTK = target: T1, His-BTK (Homo sapiens, UniProt Q06187); assay: TR-FRET competition binding assay with BTK-BODIPY tracer; conditions: for binding to BTK (result in words): TRFRET assay, up to 100 μM; for IC50: TR-FRET, 2 nM His-BTK, 150 nM BTK-BODIPY tracer, 2 h incubation
T1 construct: purchased SignalChem B10-10H-10
Description: (§1) Panels a-b. […] Panel c. […] Panel d. […] Panel e. […] Panel f.
Time-resolved fluorescence resonance energy transfer (TR-FRET) assay was carried out to evaluate the binding of indicated compounds and BTK by competition with a BODIPY-FL labeled BTK tracer (See FIG. 1, BTK TR-FRET tracer). The assay was performed in 20 μL assay buffer (50 mM Tris, pH7.5, 0.1% Triton X-100, 0.01% BSA, and 1 mM DTT) with 0.3 nM Tb-anti-His (Cisbio, Cat. No. 61HI2TLA), 2 nM His-BTK (SignalChem, Cat. No. […] Unless specified otherwise, all assays were performed in triplicates. The assay mixtures were incubated at room temperature in the dark for 120 min, unless specified otherwise, and the signals were collected using a BioTek Synergy H1 microplate reader to measure the fluorescence emission ratio ([…]) of each well, using a 340-nm excitation filter, a 100-μs delay, and a 200-μs integration time. Raw data from the plate reader were used directly for analysis. The curve-fitting software GraphPad Prism 9 was used to generate graphs and curves and to determine IC50 values.
To measure the binding affinities between PROTACs and BTK, a time-resolved fluorescence resonance energy transfer (TR-FRET) competition binding assay was developed. A BTK tracer was synthesized by conjugating an ibrutinib-based reversible noncovalent binder with the BODIPY-FL dye (FIG. 1). […] In the presence of the BTK tracer, competition assays were performed to measure the binding affinities between BTK and its inhibitors and PROTACs. […] The very weak BTK binding affinities for PS-RC-1, PS-RC-2, PS-RC-3 and PS-RC-4 explain their minimal BTK degradation effects in cells and further support that the observed growth inhibitory effect of PS-RC-1 in Mino cells is unrelated to the BTK pathway.

MM.1S cells = assay: Alarma Blue cell viability assay, MM.1S cells; type: cell-based; conditions: Homo sapiens, MM1.S, 120 h, read-out: IC50, cell growth inhibition
Description: (§2) Panel a. […] Panel b. […] Panel c. […] Panel d-e. […] Panel g.

BTK [1] = target: T2, BTK (Mus musculus, UniProt P35991); assay: Western blotting for BTK in A20 cells; type: cell-based; conditions: A20 cells, 40, 200 and 1000 nM, 24 h, Western blot
T2 construct: host or cells: A20
Description: (§3) CC-220 is a IKZF1/3 degrader developed by Celgene and used for comparison.
(§4) In contrast, PS-3, whose warhead is further reduced compared with PS-2, loses its ability to function as either a BTK degrader or a potent IKZF1/3 molecular glue. To confirm this observation, BTK degradation induced by PS-1, PS-2, and PS-3 was tested in both a human B lymphocyte cell line Ramos and mouse BALB/c B cell lymphoma line A20, with DD-03-171 from the Gray group as a positive control (FIG. 5).

Mino cells [2] = assay: cells; conditions: Homo sapiens, 72 h
Description: (§7) The cell viabilities were quantified using an Alarma Blue assay.
(§8) Dataset represents an average of n=3 replicates.

BTK [3] = target: T3, BTK (Homo sapiens, UniProt Q06187); assay: Western blotting for BTK in Ramos cells; type: cell-based; parameters: host or cells: Ramos; conditions: Ramos cells, 40, 200 and 1000 nM, 24 h, Western blot
Description: as §3, §4

GSPT1 = target: T4, GSPT1 (Homo sapiens, UniProt P15170+Q96SW2); assay: Western blotting for GSPT1 in Mino cells; type: cell-based; conditions: up to 1000 nM, 24 h, Western blot
T4 construct: host or cells: Mino
Description: as §2
Mino cells were seeded into the wells of six-well plates at the density of 5×10^5 cells per mL in 2 mL of complete RPMI-1640 culture medium. After overnight adaptation, cells were treated with serially diluted compounds (from 1,000-1.6 nM, 5-fold dilution) for 24 hours. After treatment, whole cell lysates for immunoblotting were prepared by pelleting Mino cells at 4° C. and 200×g for 5 minutes. The resulting cell pellets were washed once with ice-cold PBS and lysed in 1×RIPA lysis buffer (Alfa Aesar, Cat. No. J62524) supplemented with protease and phosphatase inhibitor cocktail (Thermo Fisher, Cat. No. 78430). Lysates were centrifuged at 15,000×g for 10 min at 4° C. and protein concentrations were assessed using BCA assay (Pierce, Cat. No. 23225). Same amounts of protein (30 μg) for each sample were loaded onto sodium dodecyl sulfate-polyacrylamide gel, separated by electrophoresis (Bio-Rad) at 120 V for 1.5 h and transferred to PVDF membrane using a Transblot Turbo system (Bio-Rad). […] All Western blots were subsequently processed and quantified with Imager software ImageJ and protein level was normalized to the B-actin loading controls.

BTK [4] = target: T3, BTK; assay: Western blotting for BTK in Mino cells; type: cell-based; parameters: host or cells: Mino; conditions: up to 1000 nM, 24 h, Western blot
Description: Mino cells were seeded into the wells of six-well plates at the density of 5×10^5 cells per mL in 2 mL of complete RPMI-1640 culture medium. After overnight adaptation, cells were treated with serially diluted compounds (from 1,000-1.6 nM, 5-fold dilution) for 24 hours. After treatment, whole cell lysates for immunoblotting were prepared by pelleting Mino cells at 4° C. and 200×g for 5 minutes. The resulting cell pellets were washed once with ice-cold PBS and lysed in 1×RIPA lysis buffer (Alfa Aesar, Cat. No. J62524) supplemented with protease and phosphatase inhibitor cocktail (Thermo Fisher, Cat. No. 78430). Lysates were centrifuged at 15,000×g for 10 min at 4° C. and protein concentrations were assessed using BCA assay (Pierce, Cat. No. 23225). Same amounts of protein (30 μg) for each sample were loaded onto sodium dodecyl sulfate-polyacrylamide gel, separated by electrophoresis (Bio-Rad) at 120 V for 1.5 h and transferred to PVDF membrane using a Transblot Turbo system (Bio-Rad). After blocking for 1 h at room temperature in 1% BSA-TBST, the membranes were immunoblotted with the specified primary antibodies at the dilution of 1:1000 in TBST (Cell Signaling Technology: anti-BTK Cat. No. 8547, anti-IKZF1 Cat. No. 14859, anti-IKZF3 Cat. No. 15103, anti-β-actin Cat. No. 4570, Proteintech: anti-GSPT1, Cat. No. 10763-1-AP) overnight at 4° C. and the HRP-conjugated secondary antibodies (Cell Signaling, Cat. No. 7074, 1:1000 in TBST) for 1 h at room temperature. Imaging was performed using the ECL Prime chemiluminescent Western blot detection reagents (Kindle Biosciences, Cat. No. R1100) by visualization of the blots with an Imager (Kindle Biosciences, Cat. No. D1001). All Western blots were subsequently processed and quantified with Imager software ImageJ and protein level was normalized to the B-actin loading controls.

Jeko-1 cells = assay: Alarma Blue cell viability assay, Jeko-1 cells; type: cell-based; conditions: 72 h
Rec-R cells = assay: Alarma Blue cell viability assay, Rec-R cells; type: cell-based; conditions: 72 h
Mino cells [5] = conditions: Mino cells pretreated with PS-RC-Ctrl 2 and 10 μM for 2 h
Description: as §7, §8

IKZF3-nLuc [6] = target: T5, IKZF3-nLuc (Homo sapiens, UniProt Q96SW2+Q9UKT9); assay: IKZF3-nLuc endpoint degradation assay in HEK-293T cells; type: cell-based; conditions: HEK-293T, read-out: IKZF3-nLuc Endpoint Dmax
T5 construct: Addgene (vector) HsCD00513042; pLenti6.2-ccdB-Nanoluc 87078; host or cells: HEK-293T17
Description: as §2
(§5) The nanoluc activity was determined using the furimazine substrate (Promega, Cat. No. N1110). Briefly, after 4 h incubation of indicated compounds, cells were directly lysed by addition of 100 μL of nanoluciferase detection solution, containing lysis buffer and furimazine (1/50 dilution). For the 24-hour treatment group, the old medium was replaced with 100 μL fresh opti-MEM, followed by the addition of equal volume of lysis buffer plus furimazine (1/50 dilution).

IKZF3 = target: T6, IKZF3 (Homo sapiens, UniProt Q96SW2+Q9UKT9); assay: Western blotting for IKZF3 in Mino cells; type: cell-based; conditions: 24 h, Western blot, read-out: IKZF3-WB Endpoint Dmax
T6 construct: host or cells: Mino
Description: as §2
(§6) After treatment, whole cell lysates for immunoblotting were prepared by pelleting Mino cells at 4° C. and 200×g for 5 minutes. […] Imaging was performed using the ECL Prime chemiluminescent Western blot detection reagents (Kindle Biosciences, Cat. No. R1100) by visualization of the blots with an Imager (Kindle Biosciences, Cat. No. D1001). All Western blots were subsequently processed and quantified with Imager software ImageJ and protein level was normalized to the B-actin loading controls.

IKZF1-nLuc [7] = target: T7, IKZF1-nLuc (Homo sapiens, UniProt Q13422+Q96SW2); assay: IKZF1-nLuc degradation kinetics assay in HEK-293T cells; type: cell-based; conditions: HEK-293T, read-out: IKZF1-nLuc Degradation Kinetics Dmax
T7 construct: Addgene (vector) HsCD00512327; pLenti6.2-ccdB-Nanoluc 87078; host or cells: HEK-293T17
Description: as §2

IKZF1 = target: T8, IKZF1 (Homo sapiens, UniProt Q13422+Q96SW2); assay: Western blotting for IKZF1 in Mino cells; type: cell-based; conditions: 24 h, Western blot, read-out: IKZF1-WB Endpoint Dmax
T8 construct: host or cells: Mino
Description: as §2, §6

IKZF3-nLuc [8] = target: T5, IKZF3-nLuc; assay: IKZF3-nLuc degradation kinetics assay in HEK-293T cells; type: cell-based; conditions: HEK-293T, read-out: IKZF3-nLuc Degradation Kinetics Dmax
Description: as §2

IKZF1-nLuc [9] = target: T7, IKZF1-nLuc; assay: IKZF1-nLuc endpoint degradation assay in HEK-293T cells; type: cell-based; conditions: HEK-293T, read-out: IKZF1-nLuc Endpoint Dmax
Description: as §2, §5

MOLM-14 cells = assay: Alarma Blue cell viability assay, MOLM14 cells; type: cell-based; conditions: Homo sapiens, 72 h, read-out: IC50, cell growth inhibition
Description: as §1

T7 sequence (Q13422 whole entry): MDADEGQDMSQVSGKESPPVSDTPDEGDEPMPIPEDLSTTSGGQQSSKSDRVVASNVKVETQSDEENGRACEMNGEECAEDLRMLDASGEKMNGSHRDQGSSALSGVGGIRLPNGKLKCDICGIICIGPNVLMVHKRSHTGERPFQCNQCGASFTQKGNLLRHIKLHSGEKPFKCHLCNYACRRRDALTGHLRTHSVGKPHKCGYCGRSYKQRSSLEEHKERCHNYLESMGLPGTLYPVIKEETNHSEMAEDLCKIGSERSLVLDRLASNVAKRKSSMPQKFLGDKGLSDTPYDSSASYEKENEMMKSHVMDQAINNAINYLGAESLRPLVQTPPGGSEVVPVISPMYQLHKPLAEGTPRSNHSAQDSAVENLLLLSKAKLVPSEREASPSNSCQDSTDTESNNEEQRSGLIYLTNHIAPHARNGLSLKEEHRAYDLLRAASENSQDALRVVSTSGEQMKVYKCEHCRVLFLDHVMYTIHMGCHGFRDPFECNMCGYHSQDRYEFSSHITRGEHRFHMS
T7 sequence (Q96SW2 whole entry): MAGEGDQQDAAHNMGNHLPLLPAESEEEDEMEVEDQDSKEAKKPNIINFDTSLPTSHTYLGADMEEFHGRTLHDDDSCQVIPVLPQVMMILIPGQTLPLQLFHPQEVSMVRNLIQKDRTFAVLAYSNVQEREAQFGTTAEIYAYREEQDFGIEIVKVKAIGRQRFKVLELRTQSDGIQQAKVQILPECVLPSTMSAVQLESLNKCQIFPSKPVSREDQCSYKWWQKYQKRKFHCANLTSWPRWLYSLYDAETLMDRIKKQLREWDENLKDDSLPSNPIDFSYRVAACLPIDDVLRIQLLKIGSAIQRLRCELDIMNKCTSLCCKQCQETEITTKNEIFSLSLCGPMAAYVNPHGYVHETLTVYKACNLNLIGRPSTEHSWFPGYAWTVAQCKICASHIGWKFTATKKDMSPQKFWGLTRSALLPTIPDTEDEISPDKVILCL
T7 sequence (Q16531 whole entry partner): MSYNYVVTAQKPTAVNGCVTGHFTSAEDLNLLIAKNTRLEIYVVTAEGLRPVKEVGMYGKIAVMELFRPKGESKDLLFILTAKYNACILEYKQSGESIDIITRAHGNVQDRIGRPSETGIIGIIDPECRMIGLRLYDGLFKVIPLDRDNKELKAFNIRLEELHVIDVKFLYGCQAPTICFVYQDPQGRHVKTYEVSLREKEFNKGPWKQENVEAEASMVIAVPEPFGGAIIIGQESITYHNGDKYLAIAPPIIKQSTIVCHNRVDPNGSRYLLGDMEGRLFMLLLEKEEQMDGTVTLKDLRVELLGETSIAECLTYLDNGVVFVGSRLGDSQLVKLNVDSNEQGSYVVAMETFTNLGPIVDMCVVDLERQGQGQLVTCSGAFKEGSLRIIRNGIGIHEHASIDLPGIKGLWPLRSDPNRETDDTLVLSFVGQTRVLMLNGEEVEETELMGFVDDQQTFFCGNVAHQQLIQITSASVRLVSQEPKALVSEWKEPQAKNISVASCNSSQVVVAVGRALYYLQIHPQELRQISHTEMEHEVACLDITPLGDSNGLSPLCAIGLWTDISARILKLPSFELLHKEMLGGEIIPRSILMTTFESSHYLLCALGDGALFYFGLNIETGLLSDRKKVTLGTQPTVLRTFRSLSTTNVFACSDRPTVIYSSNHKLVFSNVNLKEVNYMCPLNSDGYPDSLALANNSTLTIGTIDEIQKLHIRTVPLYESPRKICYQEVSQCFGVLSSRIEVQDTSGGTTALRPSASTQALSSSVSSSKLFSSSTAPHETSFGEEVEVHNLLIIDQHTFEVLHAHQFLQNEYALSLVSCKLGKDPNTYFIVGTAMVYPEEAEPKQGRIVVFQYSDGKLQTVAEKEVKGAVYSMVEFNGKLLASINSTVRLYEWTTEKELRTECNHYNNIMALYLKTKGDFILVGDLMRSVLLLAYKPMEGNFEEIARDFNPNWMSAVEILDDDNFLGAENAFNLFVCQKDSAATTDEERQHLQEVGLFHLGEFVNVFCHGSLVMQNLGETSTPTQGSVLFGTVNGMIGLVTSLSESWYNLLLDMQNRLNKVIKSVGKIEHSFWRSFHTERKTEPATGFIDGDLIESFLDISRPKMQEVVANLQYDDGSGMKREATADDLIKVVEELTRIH
T5 sequence (Q9UKT9 whole entry): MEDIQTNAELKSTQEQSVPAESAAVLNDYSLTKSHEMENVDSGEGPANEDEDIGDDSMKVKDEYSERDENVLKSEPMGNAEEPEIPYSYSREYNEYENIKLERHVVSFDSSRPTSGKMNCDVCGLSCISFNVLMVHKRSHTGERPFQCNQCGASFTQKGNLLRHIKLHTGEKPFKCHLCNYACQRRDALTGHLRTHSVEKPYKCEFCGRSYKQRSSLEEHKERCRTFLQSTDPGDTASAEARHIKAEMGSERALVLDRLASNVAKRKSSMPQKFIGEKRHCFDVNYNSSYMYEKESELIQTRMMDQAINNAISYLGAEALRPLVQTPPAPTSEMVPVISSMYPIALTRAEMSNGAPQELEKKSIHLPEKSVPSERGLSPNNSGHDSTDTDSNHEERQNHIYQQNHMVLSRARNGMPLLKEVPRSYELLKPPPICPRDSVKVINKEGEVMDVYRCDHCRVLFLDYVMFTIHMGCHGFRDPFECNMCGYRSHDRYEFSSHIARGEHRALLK
T5 sequence (Q96SW2 whole entry): as the sequence (Q96SW2 whole entry) above
T5 sequence (Q16531 whole entry partner): as the sequence (Q16531 whole entry partner) above
T1 sequence (Q06187 whole entry): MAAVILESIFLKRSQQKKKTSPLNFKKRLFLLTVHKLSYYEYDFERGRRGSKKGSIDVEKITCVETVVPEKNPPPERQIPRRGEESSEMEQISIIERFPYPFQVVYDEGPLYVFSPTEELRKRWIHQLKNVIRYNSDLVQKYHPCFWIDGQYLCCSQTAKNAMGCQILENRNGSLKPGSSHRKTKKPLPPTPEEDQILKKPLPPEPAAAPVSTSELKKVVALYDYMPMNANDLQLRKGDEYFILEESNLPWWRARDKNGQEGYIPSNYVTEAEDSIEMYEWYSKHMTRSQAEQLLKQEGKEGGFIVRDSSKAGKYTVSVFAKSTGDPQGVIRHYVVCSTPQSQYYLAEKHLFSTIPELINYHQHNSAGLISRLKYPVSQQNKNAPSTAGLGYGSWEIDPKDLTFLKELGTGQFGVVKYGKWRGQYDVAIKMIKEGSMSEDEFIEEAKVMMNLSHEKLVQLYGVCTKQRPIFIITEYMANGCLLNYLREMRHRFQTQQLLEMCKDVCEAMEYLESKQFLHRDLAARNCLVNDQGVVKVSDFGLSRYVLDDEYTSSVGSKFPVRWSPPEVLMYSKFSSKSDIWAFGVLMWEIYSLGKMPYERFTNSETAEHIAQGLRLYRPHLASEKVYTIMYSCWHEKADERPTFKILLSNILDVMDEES
T3 sequence (Q06187 whole entry): as above
T8 sequence (Q13422 whole entry): as the sequence (Q13422 whole entry) above
T8 sequence (Q96SW2 whole entry): as the sequence (Q96SW2 whole entry) above
T8 sequence (Q16531 whole entry partner): as the sequence (Q16531 whole entry partner) above
T6 sequence (Q9UKT9 whole entry): as the sequence (Q9UKT9 whole entry) above
T6 sequence (Q96SW2 whole entry): as the sequence (Q96SW2 whole entry) above
T6 sequence (Q16531 whole entry partner): as the sequence (Q16531 whole entry partner) above
T2 sequence (P35991 whole entry): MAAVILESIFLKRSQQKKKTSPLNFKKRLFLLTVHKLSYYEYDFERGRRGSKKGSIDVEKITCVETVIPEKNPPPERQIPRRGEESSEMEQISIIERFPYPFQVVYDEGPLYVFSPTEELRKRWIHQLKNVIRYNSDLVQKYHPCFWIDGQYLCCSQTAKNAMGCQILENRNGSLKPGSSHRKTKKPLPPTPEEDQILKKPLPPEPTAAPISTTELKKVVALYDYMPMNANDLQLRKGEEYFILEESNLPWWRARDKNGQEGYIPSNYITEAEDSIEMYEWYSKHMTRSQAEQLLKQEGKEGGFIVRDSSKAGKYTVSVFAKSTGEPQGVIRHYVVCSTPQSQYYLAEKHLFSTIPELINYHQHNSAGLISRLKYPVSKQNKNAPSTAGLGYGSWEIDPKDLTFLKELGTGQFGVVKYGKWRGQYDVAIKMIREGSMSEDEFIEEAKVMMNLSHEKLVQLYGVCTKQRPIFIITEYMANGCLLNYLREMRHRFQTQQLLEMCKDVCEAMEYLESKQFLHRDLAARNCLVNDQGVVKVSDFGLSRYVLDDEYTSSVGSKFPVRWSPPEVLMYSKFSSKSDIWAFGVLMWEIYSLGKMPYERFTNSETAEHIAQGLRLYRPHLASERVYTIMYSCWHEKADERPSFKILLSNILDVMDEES
T4 sequence (P15170 whole entry): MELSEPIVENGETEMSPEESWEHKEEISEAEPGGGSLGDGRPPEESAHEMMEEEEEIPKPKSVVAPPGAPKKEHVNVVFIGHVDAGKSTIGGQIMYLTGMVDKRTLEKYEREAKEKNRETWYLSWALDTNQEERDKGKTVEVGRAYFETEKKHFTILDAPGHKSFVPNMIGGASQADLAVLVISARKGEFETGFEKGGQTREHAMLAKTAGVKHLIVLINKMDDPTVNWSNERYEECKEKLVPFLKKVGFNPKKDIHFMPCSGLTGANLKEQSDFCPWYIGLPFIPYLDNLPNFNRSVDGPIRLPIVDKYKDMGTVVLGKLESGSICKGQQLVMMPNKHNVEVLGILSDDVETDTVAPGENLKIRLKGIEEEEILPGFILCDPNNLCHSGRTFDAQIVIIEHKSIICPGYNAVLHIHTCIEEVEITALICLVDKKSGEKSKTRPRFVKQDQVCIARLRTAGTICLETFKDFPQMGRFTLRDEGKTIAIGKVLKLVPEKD
T4 sequence (Q96SW2 whole entry): as the sequence (Q96SW2 whole entry) above
T4 sequence (Q16531 whole entry partner): as the sequence (Q16531 whole entry partner) above

## O=C1CCC(N2C(=O)c3cccc(NCC(=O)N4CCN(c5ccc(Nc6nc(Oc7ccccc7)c7occc7n6)cc5)CC4)c3C2=O)C(=O)N1 (stereo not shown) [PS-1, 2-(2,6-Dioxopiperidin-3-yl)-4-((2-oxo-2-(4-(4-((4-phenoxyfuro[3,2-d]pyrimidin-2-yl)amino)phenyl)piperazin-1-yl)ethyl)amino)isoindoline-1,3-dione]
His-BTK
  binding to BTK (result in words): almost no binding to BTK
MM.1S cells
  IC50: 3 nM
BTK [1]
  BTK degradation (result in words): very weak or no BTK degradation
Mino cells [2]; read-out: IC50, cell growth inhibition / cell viability, Mino cells, 72 h
  IC50: 16 nM
BTK [3]
  BTK degradation (result in words): very weak or no BTK degradation

## CC(C)(C)/C=C(\C#N)C(=O)Nc1cccc(Oc2nc(Nc3ccc(N4CCN(C(=O)CNc5cccc6c5C(=O)N(C5CCC(=O)NC5=O)C6=O)CC4)cc3)nc3ccoc23)c1 (stereo not shown) [PS-RC-1, (E)-2-cyano-N-(3-((2-((4-(4-((2-(2,6-dioxopiperidin-3-yl)-1,3-dioxoisoindolin-4-yl)glycyl)piperazin-1-yl)phenyl)amino)furo[3,2-d]pyrimidin-4-yl)oxy)phenyl)-4,4-dimethylpent-2-enamide]
GSPT1
  GSPT1 degradation (result in words): does not degrade GSPT1
BTK [4]
  BTK degradation (result in words): none of the tested PROTACs induce appreciable BTK degradation
Jeko-1 cells
  response of cell growth to compound: poorly respond
Rec-R cells
  response of cell growth to compound: poorly respond
Mino cells [5]
  IC50 shift upon PS-RC-Ctrl pre-treatment: An appreciable IC50 shift was not observed

## Nc1cccc2c1C(=O)N(C1CCC(=O)NC1=O)C2=O (stereo not shown) [Pomalidomide, reference compound]
IKZF3-nLuc [6]
  Dmax: 94%
IKZF3
  Dmax: 96%
Mino cells [2]; read-out: IC50, cell growth inhibition / cell viability
  IC50: 329 nM
IKZF1-nLuc [7]
  Dmax at 0.04 µM: 53%
  Dmax at 0.2 µM: 80%
Jeko-1 cells
  response of cell growth to compound: only Mino cells are responsive
IKZF1
  Dmax: 96%
Rec-R cells
  response of cell growth to compound: only Mino cells are responsive
IKZF3-nLuc [8]
  Dmax at 0.04 µM: 52%
  Dmax at 0.2 µM: 64%
IKZF1-nLuc [9]
  Dmax: 90%

## C=CC(=O)Nc1cccc(Oc2nc(Nc3ccc(N4CCN(C)CC4)cc3)nc3ccoc23)c1 [Poseltinib]
His-BTK
  IC50: 1.21 nM
  binding to BTK (result in words): binding affinity in the nM range
His-BTK; listed as poseltinib
  IC50: 1.1 nM and 1.2 nM
MOLM-14 cells
  IC50: 2900 nM
